Laboratory results taken from patent US11299472B2, “Fumarate salt of (R)-3-(1-(2,3-dichloro-4-(pyrazin-2-yl)phenyl)-2,2,2- trifluoroethyl)-1-methyl-1-(1-methylpiperidin-4-yl) urea, methods of preparation, and uses thereof” (Helsinn Healthcare SA, priority 2017, dated 2022).
Like-named read-outs stand apart in the source and are kept apart here.

Legend:
[1] = Rat pharmacokinetic study, single oral HM04 fumarate salt 3, 10, 30 mg/kg (Example 10); format: in vivo, male Sprague Dawley rats; conditions: for concentration at 0.5 h: 0.50 hours
Method: (§1) The pharmacokinetics of HM04 in plasma after single oral administration of HM04 fumarate salt to 6-week old male Sprague Dawley rats and male Beagle dogs (1-5 years of age) was investigated. Test formulations of 0.6 mg/mL, 2 mg/mL, and 6 mg/mL HM04 fumarate salt (based on weight of the free base) were prepared in 5% glucose solution. Doses of 3, 10, and 30 mg/kg HM04 fumarate salt (based on weight of the free base) were administered by gastric gavage as a 5 mL/kg dose volume of each of the three test formulations. Four animals were in each dose group. The formulation was administered to the dogs in fasting conditions with food provided three hours post-dosing.
A comparison of the plasma concentration of HM04 (ng/mL) in rats over time is provided in FIG. 19 and a summary of the pharmacokinetic analysis is provided in Table 5, below. […] The standard deviation associated with the mean oral bioavailability was calculated according to the formula: SDq=[^2√{square root over ((my^2·SDx^2+mx^2−SDy^2))}]/my^2 where q=mean bioavailability; mx=oral dose-normalized mean AUC, and my=IV dose-normalized mean AUC.
(§2) Plasma HM04 concentrations were measured by LC-MS/MS following protein precipitation in the 96-well plate format. At the time of analysis samples were thawed out at ambient temperature. Aliquots of 25 μL of rat or dog K3EDTA plasma were spiked with 300 μL of internal standard (25 ng/mL of HM04-d8 in acetonitrile). After gentle vortex mixing for 5 minutes and centrifugation at 2010 g for 15 minutes at 4° C., an aliquot of 100 μL of the organic phase was transferred into a fresh 96-well polypropylene plate, using a P3-Evolution robotic system (Perkin Elmer). Following dilution with 100 μL of […] ammonium formate pH 3.5, an aliquot of 10 μL was injected into the LC-MS/MS system.

[2] = Rat pharmacokinetic study, HM04 free base vs HM04 fumarate salt (Example 9); format: in vivo, male Sprague Dawley rats
[3] = Dog pharmacokinetic study, single oral HM04 fumarate salt 3, 10, 30 mg/kg (Example 10); format: in vivo, male Beagle dogs; conditions: for bioavailability / concentration at 0 h / concentration at 0.25 h / concentration at 0.5 h / concentration at 1 h / concentration at 2 h / concentration at 4 h / concentration at 8 h / concentration at 24 h / AUC(0-t) / Cmax / Tmax / half-life / AUC(0-inf): male, Beagle, plasma; for bioavailability: individual AUC∞ ratios; for concentration at 0.5 h: 0.50 hours
Method: as §1
Oral absolute bioavailability at 3 mg/kg was calculated from the ratio of individual oral AUC∞ to the individual AUC∞ values determined following intravenous administration of 3 mg/kg HM04 fumarate salt (based on weight of the free base) to the same four male Beagle dogs.
Oral absolute bioavailability at 10 mg/kg was calculated from the ratio of individual oral AUC∞ to the individual AUC∞ values determined following intravenous administration of 10 mg/kg HM04 fumarate salt (based on weight of the free base) to the same four male Beagle dogs.
as §2

[4] = male, Sprague Dawley, plasma, 3 mg/kg oral vs 3 mg/kg intravenous mean AUC
[5] = male, Sprague Dawley, plasma, 3 mg/kg oral, n=4
[6] = male, Sprague Dawley, plasma, 10 mg/kg oral, n=4
[7] = male, Sprague Dawley, plasma, 10 mg/kg oral, N = 3
[8] = male, Sprague Dawley, plasma, 30 mg/kg oral, n=4
[9] = oral dose range of 3 to 30 mg/kg

HM04 plasma concentration ([1]; 3 mg/kg oral, 24 hours, n=4, LLOQ 5.0 ng/mL): BLQ
bioavailability [1, 4]: 43.3 ± 10.5%
concentration at 0.25 h [1, 5]: 34.7 ± 5.42 ng/mL
concentration at 0.5 h [1, 5]: 64.2 ± 35 ng/mL
concentration at 1 h [1, 5]: 82.4 ± 30.8 ng/mL
concentration at 2 h [1, 5]: 150 ± 53.5 ng/mL
concentration at 4 h [1, 5]: 116 ± 24 ng/mL
concentration at 8 h [1, 5]: 47 ± 10.9 ng/mL
half-life ([1]; male, Sprague Dawley, plasma, 3 mg/kg oral, N = 2): 2.82 h
AUC(0-t) [1, 5]: 762 ± 164 ng·h/mL
Cmax [1, 5]: 156 ± 47.3 ng/mL
Tmax [1, 5]: 3 ± 1.15 h
AUC ([1]; male, Sprague Dawley, plasma, 10 mg/kg intravenous, four rats, read-out: mean AUC following intravenous administration): 6170 ± 1770 ng·h/mL
bioavailability ([1]; male, Sprague Dawley, plasma, 10 mg/kg oral vs 10 mg/kg intravenous mean AUC): 54.4 ± 15.2%
concentration at 0.25 h [1, 6]: 150 ± 28.5 ng/mL
concentration at 0.5 h [1, 6]: 548 ± 603 ng/mL
concentration at 1 h [1, 6]: 456 ± 100 ng/mL
concentration at 2 h [1, 6]: 652 ± 62.1 ng/mL
concentration at 4 h [1, 6]: 387 ± 134 ng/mL
concentration at 8 h [1, 6]: 215 ± 97.3 ng/mL
concentration at 24 h ([1]; male, Sprague Dawley, plasma, 10 mg/kg oral, 24 hours, N = 1, three of four animals below level of quantification): 8.73 ± 17.5 ng/mL
AUC(0-t) [1, 7]: 3360 ± 685 ng·h/mL
half-life [1, 7]: 4.88 h
Cmax [1, 6]: 769 ± 458 ng/mL
Tmax [1, 6]: 1.38 ± 0.75 h
concentration at 0.25 h [1, 8]: 950 ± 465 ng/mL
concentration at 0.5 h [1, 8]: 1400 ± 961 ng/mL
concentration at 1 h [1, 8]: 2290 ± 537 ng/mL
concentration at 2 h [1, 8]: 2560 ± 530 ng/mL
concentration at 4 h [1, 8]: 2120 ± 422 ng/mL
concentration at 8 h [1, 8]: 1350 ± 179 ng/mL
concentration at 24 h ([1]; male, Sprague Dawley, plasma, 30 mg/kg oral, 24 hours, n=4): 14.6 ± 6.8 ng/mL
AUC(0-t) [1, 8]: 26200 ± 3970 ng·h/mL
Cmax [1, 8]: 2590 ± 524 ng/mL
Tmax [1, 8]: 1.75 ± 0.5 h
half-life [1, 8]: 2.65 ± 0.193 h
HM04 plasma concentration ([2]; 3 mg/kg oral, 0.25 hours, mean ± S.D., n=3): 107.8 ± 27.8 ng/mL
HM04 plasma concentration ([2]; 3 mg/kg oral, 4 hours, mean ± S.D., n=3): 108.3 ± 38.3 ng/mL
AUC ([2]; male, Sprague Dawley, plasma, 3 mg/kg intravenous, three rats, read-out: mean AUC following intravenous administration): 2100 ± 358 ng·h/mL
bioavailability [2, 4]: 46.1 ± 6.99%
Cmax ([2]; male, Sprague Dawley, plasma, 3 mg/kg oral, mean ± S.D., n=3): 329 ± 185 ng/mL
clearance [3]: low clearance
oral bioavailability [3]: high
HM04 plasma concentration ([3]; 30 mg/kg oral, 0 hours (pre-dose), n=4, LLOQ 2.5 ng/mL): BLQ
bioavailability ([3]; 3 mg/kg oral vs 3 mg/kg intravenous): 55.6 ± 18.8%
concentration at 0 h ([3]; 3 mg/kg oral, 0 hours (pre-dose), n=4): 5.34 ± 3.83 ng/mL
concentration at 0.25 h ([3]; 3 mg/kg oral, n=4): 66 ± 26.8 ng/mL
concentration at 0.5 h ([3]; 3 mg/kg oral, n=4): 360 ± 238 ng/mL
concentration at 1 h ([3]; 3 mg/kg oral, n=4): 300 ± 127 ng/mL
concentration at 2 h ([3]; 3 mg/kg oral, N = 3 (Dog 3 excluded as outlier)): 287 ± 158 ng/mL
concentration at 4 h ([3]; 3 mg/kg oral, n=4): 185 ± 115 ng/mL
concentration at 8 h ([3]; 3 mg/kg oral, n=4): 95.6 ± 83.3 ng/mL
concentration at 24 h ([3]; 3 mg/kg oral, n=4): 8.83 ± 14.7 ng/mL
AUC(0-t) ([3]; 3 mg/kg oral, n=4): 2160 ± 1720 ng·h/mL
Cmax ([3]; 3 mg/kg oral, n=4): 425 ± 222 ng/mL
Tmax ([3]; 3 mg/kg oral, n=4): 0.875 ± 0.25 h
half-life ([3]; 3 mg/kg oral, n=4, read-out: t1/2 (converted)): 4.02 ± 1.21 h
bioavailability ([3]; 10 mg/kg oral vs 10 mg/kg intravenous): 68 ± 10%
concentration at 0 h ([3]; 10 mg/kg oral, 0 hours (pre-dose), n=4): 2.15 ± 4.3 ng/mL
concentration at 0.25 h ([3]; 10 mg/kg oral, n=4): 307 ± 246 ng/mL
concentration at 0.5 h ([3]; 10 mg/kg oral, n=4): 862 ± 460 ng/mL
concentration at 1 h ([3]; 10 mg/kg oral, n=4): 1510 ± 435 ng/mL
concentration at 2 h ([3]; 10 mg/kg oral, n=4): 1170 ± 260 ng/mL
concentration at 4 h ([3]; 10 mg/kg oral, n=4): 789 ± 150 ng/mL
concentration at 8 h ([3]; 10 mg/kg oral, n=4): 468 ± 171 ng/mL
concentration at 24 h ([3]; 10 mg/kg oral, n=4): 65.1 ± 65.2 ng/mL
AUC(0-t) ([3]; 10 mg/kg oral, n=4): 10900 ± 3500 ng·h/mL
Cmax ([3]; 10 mg/kg oral, n=4): 1510 ± 435 ng/mL
Tmax ([3]; 10 mg/kg oral, n=4): 1 h
half-life ([3]; 10 mg/kg oral, n=4, read-out: t1/2 (converted)): 4.93 ± 1.31 h
concentration at 0.25 h ([3]; 30 mg/kg oral, n=4): 1940 ± 1330 ng/mL
concentration at 0.5 h ([3]; 30 mg/kg oral, n=4): 3730 ± 1560 ng/mL
concentration at 1 h ([3]; 30 mg/kg oral, n=4): 5720 ± 1200 ng/mL
concentration at 2 h ([3]; 30 mg/kg oral, n=4): 5030 ± 710 ng/mL
concentration at 4 h ([3]; 30 mg/kg oral, n=4): 3780 ± 577 ng/mL
concentration at 8 h ([3]; 30 mg/kg oral, n=4): 2440 ± 176 ng/mL
concentration at 24 h ([3]; 30 mg/kg oral, n=4): 560 ± 147 ng/mL
AUC(0-t) ([3]; 30 mg/kg oral, n=4): 54000 ± 6010 ng·h/mL
Cmax ([3]; 30 mg/kg oral, n=4): 5720 ± 1200 ng/mL
Tmax ([3]; 30 mg/kg oral, n=4): 1 h
half-life ([3]; 30 mg/kg oral, n=4, read-out: t1/2 (converted)): 6.97 ± 0.613 h
half-life ([3]; intravenous, range, read-out: half-life after intravenous administration): 4 to 5 h
AUC(0-inf) ([3]; iv, 3 mg/kg, Dog 1, 3 mg/kg intravenous, read-out: individual IV AUC∞): 6190 ng·h/mL
AUC(0-inf) ([3]; iv, 3 mg/kg, Dog 2, 3 mg/kg intravenous, read-out: individual IV AUC∞): 3100 ng·h/mL
AUC(0-inf) ([3]; iv, 3 mg/kg, Dog 3, 3 mg/kg intravenous, read-out: individual IV AUC∞): 3210 ng·h/mL
AUC(0-inf) ([3]; iv, 3 mg/kg, Dog 4, 3 mg/kg intravenous, read-out: individual IV AUC∞): 3070 ng·h/mL
AUC(0-inf) ([3]; iv, 10 mg/kg, Dog 1, 10 mg/kg intravenous, read-out: individual IV AUC∞): 22500 ng·h/mL
AUC(0-inf) ([3]; iv, 10 mg/kg, Dog 2, 10 mg/kg intravenous, read-out: individual IV AUC∞): 13200 ng·h/mL
AUC(0-inf) ([3]; iv, 10 mg/kg, Dog 3, 10 mg/kg intravenous, read-out: individual IV AUC∞): 15500 ng·h/mL
AUC(0-inf) ([3]; iv, 10 mg/kg, Dog 4, 10 mg/kg intravenous, read-out: individual IV AUC∞): 14900 ng·h/mL
half-life ([3]; oral 3 to 30 mg/kg, range, read-out: apparent terminal half-life): 4 to 7 h
AUC(0-inf) ([3]; po, 3 mg/kg, Dog 1, 3 mg/kg oral, read-out: individual oral AUC∞): 4930 ng·h/mL
AUC(0-inf) ([3]; po, 3 mg/kg, Dog 2, 3 mg/kg oral, read-out: individual oral AUC∞): 1440 ng·h/mL
AUC(0-inf) ([3]; po, 3 mg/kg, Dog 3, 3 mg/kg oral, read-out: individual oral AUC∞): 1160 ng·h/mL
AUC(0-inf) ([3]; po, 3 mg/kg, Dog 4, 3 mg/kg oral, read-out: individual oral AUC∞): 1850 ng·h/mL
AUC(0-inf) ([3]; po, 10 mg/kg, Dog 1, 10 mg/kg oral, read-out: individual oral AUC∞): 17500 ng·h/mL
AUC(0-inf) ([3]; po, 10 mg/kg, Dog 2, 10 mg/kg oral, read-out: individual oral AUC∞): 8780 ng·h/mL
AUC(0-inf) ([3]; po, 10 mg/kg, Dog 3, 10 mg/kg oral, read-out: individual oral AUC∞): 8470 ng·h/mL
AUC(0-inf) ([3]; po, 10 mg/kg, Dog 4, 10 mg/kg oral, read-out: individual oral AUC∞): 10900 ng·h/mL
time to maximal concentrations of HM04 ([3]; single oral administrations, post-dosing): ≤ 1 h
Compound: CN1CCC(N(C)C(=O)N[C@H](c2ccc(-c3cnccn3)c(Cl)c2Cl)C(F)(F)F)CC1.O=C(O)/C=C/C(=O)O [HM04 fumarate salt, (R)-3-(1-(2,3-dichloro-4-(pyrazin-2-yl)phenyl)-2,2,2-trifluoroethyl)-1-methyl-1-(1-methylpiperidin-4-yl)urea fumarate salt]
AUC versus dose [3, 9]: increased more than in direct proportion with the dose
Cmax versus dose [3, 9]: increased roughly proportionally with the dose
